Values quoted from earlier work, collected in patent US20050148552A1, “Methods of treating eczema” (priority 2003, published 2005).
Where a name gives a salt, the structure may show the parent alone.

Legend:
[1] = single dose of two 100 mg minocycline HCl tablets or capsules, adult humans
[2] = 250 mg every six hours over a twenty-four hour period

Row | SMILES | average minocycline serum level [1] [µg/mL] | peak serum level [2]
1 | CN(C)c1ccc(O)c2c1C[C@H]1C[C@H]3[C@H](N(C)C)C(O)=C(C(N)=O)C(=O)[C@@]3(O)C(O)=C1C2=O [minocycline HCl] | 2.24 | –
2 | CN(C)[C@@H]1C(O)=C(C(N)=O)C(=O)[C@@]2(O)C(O)=C3C(=O)c4c(O)cccc4[C@@](C)(O)[C@H]3C[C@@H]12 [tetracycline HCl] | – | approximately 3 μg/ml
